From patent publication US20110212106A1, “HIV-1 NE[…] USES THEREOF” (priority 2010, published 2011)
Several values for one entry are separate records, joined by “and”; a condition that tells them apart may be missing. Equal entries are not always repeated. Where two headings read alike, the source gives them in different places.

Tests used:
[1] = test system: HIV-1 pseudoviruses in HOS-CD4-CCR5 cells; details: for IC50: Table 7, HOS
Experimental: To measure the neutralization activity of the isolated mAbs, luciferase-encoding virions pseudotyped with the desired HIV-1 Env proteins were used in a single-cycle infectivity assay, as previously described (Gorny M K, et al. (2002) J Virol 76: 9035-9045). Briefly, appropriate dilutions of the virion-containing culture supernatants were pre-incubated at 37° C. for 1 h with mAbs at various concentrations. The virus-mAb mixtures were added to HOS-CD4-CCR5 cells and incubated for 3 days at 37° C. A similar protocol was used for supernatants screening using TZM-bl cells (Li M, et al. (2006) J Virol 80: 11776-11790). The cells were then lysed with Britelite reagent (Perkin-Elmer) and the relative light units in the cell lysates were determined on a luminometer microplate reader (Veritas, Turner Biosystems). The 50% inhibitory dose (IC50) was defined as the sample concentration at which relative luminescence units were reduced 50% compared to virus control wells.
The neutralizing activity of the mAbs was measured using 20 pseudotyped HIV-1 primary isolate envs characterized by different sensitivity to neutralization (Li M, et al. (2005) J Virol 79: 10108-10125; Li M, et al. (2006) J Virol 80: 11776-11790). The mAbs were tested at a fixed concentration (100 μg/ml) in the luciferase based neutralization assay using HOS-CD4.R5 as target cells.

[2] = test system: HIV-1 pseudoviruses in TZM-bl cells; details: for IC50: Table 7, TZMbl
[3] = test system: primary replication competent HIV-1 isolates
[4] = test system: gp120
Experimental: For competition assays mAbs were purified on Protein G columns (GE Healthcare) and biotinylated using the EZ-Link NHS-PEO solid phase biotinylation kit (Pierce). The competition between unlabeled and biotinylated mAbs for binding to immobilized Env antigens was measured by ELISA. Briefly, unlabelled competitor mAbs were added at different concentrations. After 1 hour biotinylated mAbs were added at a concentration corresponding to the 70-80% of the maximal OD level. After incubation for 1 h, plates were washed and bound biotinylated mAb was detected using AP-labeled streptavidin (Jackson Immunoresearch). The percentage of inhibition was tested in triplicates and calculated as follow: (1−[(ODsample−ODneg ctr)/(ODpos ctr−ODneg ctr)])×100.

[5] = test system: gp120 binding to sCD4; details: inhibition of sCD4 binding
Experimental: Shown is mean±SD of triplicates.
The ability of mAbs to inhibit binding of sCD4 to gp120 or gp140 was evaluated by ELISA. Serial dilutions of mAbs were pre-incubated with gp120 (or gp140) and added to plates pre-coated with sCD4. After 1 h plates were washed and incubated with sheep polyclonal antibody D7324 (Aalto Bio-Reagents) followed by washing, incubation with AP-conjugated rabbit anti-sheep IgG antibody (Abcam, Cambridge, UK), extensive washing and detection using p-NPP (Sigma) as substrate.

## enfuvirtide
[1]; 96ZM651.2, clade C
  IC50: 0.6 nM
[1]; 263-8, clade AG
  IC50: 0.04 nM
[1]; AC10.0.29, clade B
  IC50: 1.2 nM
[1]; BaL.26, clade B
  IC50: 1.4 nM
[1]; CAP210.2.00.E8, clade C
  IC50: 6 nM
[1]; CH064.20, clade BC
  IC50: 0.7 nM
[1]; CH110.2, clade BC
  IC50: 0.335 nM
[1]; CH181.12, clade BC
  IC50: 1.8 nM
[1]; Du151.2, clade C
  IC50: 0.6 nM
[1]; JR-FL, clade B
  IC50: 1.9 nM
[1]; MW965.26, clade C
  IC50: 0.6 nM
[1]; Q168.a2, clade AD
  IC50: 5.7 nM
[1]; Q461.e2, clade A
  IC50: 1.6 nM
[1]; Q769.d22, clade A
  IC50: 1.7 nM
[1]; RHPA4259.7, clade B
  IC50: 1.9 nM
[1]; SF162, clade B
  IC50: 6.8 nM
[1]; SS1196.1, clade B
  IC50: 0.9 nM
[1]; T257-31, clade AG
  IC50: 2.76 nM
[1]; ZM53M.PB12, clade C
  IC50: 6.1 nM
[1]; ZM214M.PL15, clade C
  IC50: 4.42 nM
[2]; 96ZM651.2, clade C
  IC50: 8.9 nM
[2]; 263-8, clade AG
  IC50: < 2.23 nM
[2]; AC10.0.29, clade B
  IC50: 6.68 nM
[2]; BaL.26, clade B
  IC50: 6.68 nM
[2]; CAP210.2.00.E8, clade C
  IC50: 13.4 nM
[2]; CH064.20, clade BC
  IC50: < 2.23 nM
[2]; CH110.2, clade BC
  IC50: < 2.23 nM
[2]; CH181.12, clade BC
  IC50: < 2.23 nM
[2]; Du151.2, clade C
  IC50: < 2.23 nM
[2]; Q168.a2, clade AD
  IC50: 8.9 nM
[2]; Q461.e2, clade A
  IC50: 6.68 nM
[2]; Q769.d22, clade A
  IC50: 20 nM
[2]; RHPA4259.7, clade B
  IC50: 8.9 nM
[2]; SF162, clade B
  IC50: 20 nM
[2]; SS1196.1, clade B
  IC50: 4.45 nM
[2]; T257-31, clade AG
  IC50: < 2.23 nM
[2]; ZM53M.PB12, clade C
  IC50: < 2.23 nM
[2]; ZM214M.PL15, clade C
  IC50: 17.8 nM
[3]; 92BR025, clade C
  IC50: < 16 nM
  IC90: 29 nM
[3]; 92RW009, clade A
  IC50: < 16 nM
  IC90: 44 nM
[3]; 92UG024, clade D
  IC50: 16 nM
  IC90: 48 nM
[3]; J213, clade B
  IC50: 35 nM
  IC90: 192 nM
[3]; MN(P), clade B
  IC50: 39 nM
  IC90: 63 nM
[3]; QH0692, clade B
  IC50: 78 nM
  IC90: 207 nM
[3]; VI 191, clade A
  IC50: 32 nM
  IC90: 56 nM

## HJ16: human mAb from clade C donor, CD4 binding site proximal epitope; VH SEQ ID NO: 13, VL SEQ ID NO: 14
[1]; HOS-based assay, isolates neutralized/isolates tested
  Neutralization HOS (number of isolates neutralized): 10/20
[1]; mAb at fixed concentration 100 μg/ml
  pseudoviruses neutralized out of the 20 pseudoviruses: 10
[2]; All (92)
  Percentage of HIV-1 isolates neutralized: 36%
[2]; TZM-bl based assay, isolates neutralized/isolates tested
  Neutralization TZM-bl (number of isolates neutralized): 33/92
[2]; Tier 1 (10)
  Percentage of HIV-1 isolates neutralized: 10%
[2]; Tier 1 + Tier 2, Clade A (8)
  Percentage of HIV-1 isolates neutralized: 25%
[2]; Tier 1 + Tier 2, Clade AD (1)
  Percentage of HIV-1 isolates neutralized: 100%
[2]; Tier 1 + Tier 2, Clade AG (16)
  Percentage of HIV-1 isolates neutralized: 50%
[2]; Tier 1 + Tier 2, Clade B (29)
  Percentage of HIV-1 isolates neutralized: 34%
[2]; Tier 1 + Tier 2, Clade BC (11)
  Percentage of HIV-1 isolates neutralized: 45%
[2]; Tier 1 + Tier 2, Clade C (26)
  Percentage of HIV-1 isolates neutralized: 27%
[2]; Tier 1 + Tier 2, Clade G (1)
  Percentage of HIV-1 isolates neutralized: 0%
[2]; Tier 2 (82)
  Percentage of HIV-1 isolates neutralized: 39%
[2]; Tier 2, Clade A (5)
  Percentage of HIV-1 isolates neutralized: 20%
[2]; Tier 2, Clade AD (1)
  Percentage of HIV-1 isolates neutralized: 100%
[2]; Tier 2, Clade AG (16)
  Percentage of HIV-1 isolates neutralized: 50%
[2]; Tier 2, Clade B (24)
  Percentage of HIV-1 isolates neutralized: 42%
[2]; Tier 2, Clade BC (11)
  Percentage of HIV-1 isolates neutralized: 45%
[2]; Tier 2, Clade C (24)
  Percentage of HIV-1 isolates neutralized: 29%
[2]; Tier 2, Clade G (1)
  Percentage of HIV-1 isolates neutralized: 0%
[2]; of 32 neutralized
  Tier-2 isolates neutralized by HJ16 that were not neutralized by b12: 22/32
[2]; panel of 10 Tier-1 isolates
  Tier-1 viruses neutralized: 1 out of 10 and 1/10
[2]; panel of 82 Tier-2 isolates
  Tier-2 pseudoviruses neutralized: 32/82
[4]; binding to immobilized gp120
  plateau of heterologous inhibition in cross-competition of HJ16 and b12: approximately 80%
[4]; inhibition of biotinylated mAb 2G12 binding to immobilized gp120
  Cross-competition with: 2G12: − (−, <50% inhibition)
[4]; inhibition of biotinylated mAb HGA9 binding to immobilized gp120
  Cross-competition with: HGA9: − (−, <50% inhibition)
[4]; inhibition of biotinylated mAb HJ16 binding to immobilized gp120
  Cross-competition with: HJ16: + (+,90-100% inhibition)
[5]
  Cross-competition with: sCD4: + (+,90-100% inhibition)
